Counter-ions that a name gives are not always drawn.
Tests used:
[1] = target: T1, NK1 receptors (Cavia porcellus, UniProt P30547); assay: NK1 in vivo functional assay (Test F), ASMSP-induced bronchoconstriction; conditions: anesthetized guinea pig, agonist ASMSP, Dose Ratio of ED50 in presence/absence of antagonist
T1 construct: from tissue; host or cells: whole anesthetized guinea pig (airways, in vivo)
Experimental: (§1) NK1 and NK2 in vivo functional assay (Test F)
(§2) Exp. Ther., 1993, Vol 267(3), pp 1168-1175. The assay is carried out as follows.
(§3) Compounds are tested in anesthetized guinea pigs pretreated with i.v. indomethacin (10 mg/kg, 20 min.), propranolol (0.5 mg/kg, 15 min.), and thiorphan (10 mg/kg, 10 min).
(§4) […] The agonists used in these studies are ASMSP (Ac-[Arg^6, Sar^9, Met(O2)^11]-SP(6-11)) and BANK (β-ala-8 NKA4-10).
(§5) Administered i.v., ASMSP is selective for NK1 receptors, and BANK is selective for NK2 receptors. Maximum response is defined as zero conductance (GL, 1/Rp). ED50 values are calculated (the dose of agonist resulting in a reduction of GL to 50% of baseline), and converted to the negative logarithm (−logED50). The ED50 values, obtained in the presence (P) and absence (A) of antagonist, are used to calculate a Dose Ratio (P/A), an expression of potency. Data are expressed as mean±SEM and statistical differences were determined using ANOVA/Tukey-Kramer and Student's t-test, with p<0.05 considered statistically significant.

[2] = target: T2, NK1 receptor (Oryctolagus cuniculus, UniProt G1SEI7); assay: Rabbit Pulmonary Artery: NK1 in vitro functional assay (Test D); format: cell-based; conditions: relaxation to agonist ASMSP, negative log apparent dissociation constant, read-out: NK1pKb (converted)
T2 construct: Paired tissue segments of pulmonary artery excised from male New Zealand white rabbits; from tissue; host or cells: rabbit pulmonary artery segments
Source text: Rabbit Pulmonary Artery: NK1 in vitro functional assay (Test D)
The ability of a Compound of the invention to antagonize the action of the agonist Ac-[Arg^6, Sar^9, Met(O2)^11] […] Am. J. Physiol. 268: L152-L159, 1995.
Paired tissue segments of pulmonary artery excised from male New Zealand white rabbits are suspended between stainless steel stirrups for analyses of isometric relaxation under standard conditions in physiological salt solution (PSS) containing indomethacin (5 microM; to block cyclooxygenase) and propranolol (1 microM; to block β adrenergic receptors).
Initial tension placed on each tissue is 2 grams, which is maintained throughout the 1.0 hour equilibration period. Tissues are washed with PSS at 15 minute intervals. At the 30 and 45 minute wash the following treatments are added: Thiorphan (1 microM; to block E.C.3.4.24.11), ((3R)-3-[(1S)-1-(3,4-Dichlorophenyl)-3-(4-[(R or S)-2-methylsulfinyl-phenyl]-piperidino)propyl]-2-ethyl-2,3-dihydroisoindol-1-one) (0.03 microM; to block NK^2 receptors as described in: “Aharony D., et al. Pharmacological Characterization of ZD7944: A Novel, Potent and orally-Active Non-Peptide Neurokinin-A (NK-2) Receptor Antagonist Eur. Respir. J. 12 (Suppl. 12):20S, 1998”), and the given concentration of the Compound being tested. After equilibration, phenylephrine (3 microM) is added to produce steady-state contraction of the tissue and a dose relaxation curve to ASMSP is constructed. […]
For antagonists behaving in a noncompetitive manner, the percent inhibition of relaxation is determined at a given concentration of the antagonist. Percent inhibition is determined when a tested Compound produces a statistically significant reduction of the magnitude of maximum relaxation and is calculated as a percentage of the papaverine reference response For antagonists behaving competitively, potencies are determined by calculating the negative log value of the apparent dissociation constant (pKB) for each concentration tested. Statistical significance is determined when the P value is <0.05 using the Student's t-test for paired comparisons.

[3] = target: T3, NK2 receptors (Cavia porcellus, UniProt Q64077); assay: NK2 in vivo functional assay (Test F), BANK-induced bronchoconstriction; conditions: anesthetized guinea pig, agonist BANK, Dose Ratio of ED50 in presence/absence of antagonist
T3 construct: from tissue; host or cells: whole anesthetized guinea pig (airways, in vivo)
T3 sequence (Q64077 1-402): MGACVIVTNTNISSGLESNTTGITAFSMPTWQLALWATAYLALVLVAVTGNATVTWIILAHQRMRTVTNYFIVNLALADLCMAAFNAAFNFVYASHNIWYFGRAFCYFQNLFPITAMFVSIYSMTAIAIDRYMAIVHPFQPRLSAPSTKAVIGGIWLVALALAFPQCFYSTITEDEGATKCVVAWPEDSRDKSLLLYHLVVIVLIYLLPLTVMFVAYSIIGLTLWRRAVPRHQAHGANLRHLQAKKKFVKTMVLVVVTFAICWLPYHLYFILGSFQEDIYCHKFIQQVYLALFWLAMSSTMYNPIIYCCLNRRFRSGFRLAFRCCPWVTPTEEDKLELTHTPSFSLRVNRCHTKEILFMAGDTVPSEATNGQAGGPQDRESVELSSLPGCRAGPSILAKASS
Experimental: as §1, §2, §3, §4, §5

[4] = target: T4, NK2 receptor (Oryctolagus cuniculus, UniProt P79218); assay: NK2 in vitro functional assay (Test E), rabbit pulmonary artery; format: cell-based; conditions: contraction to agonist BANK, negative log apparent dissociation constant, read-out: NK2pKb (converted)
T4 construct: Left and right pulmonary arteries are excised from male New Zealand white rabbits; from tissue; host or cells: rabbit pulmonary artery ring segments, endothelium removed
T4 sequence (P79218 1-384): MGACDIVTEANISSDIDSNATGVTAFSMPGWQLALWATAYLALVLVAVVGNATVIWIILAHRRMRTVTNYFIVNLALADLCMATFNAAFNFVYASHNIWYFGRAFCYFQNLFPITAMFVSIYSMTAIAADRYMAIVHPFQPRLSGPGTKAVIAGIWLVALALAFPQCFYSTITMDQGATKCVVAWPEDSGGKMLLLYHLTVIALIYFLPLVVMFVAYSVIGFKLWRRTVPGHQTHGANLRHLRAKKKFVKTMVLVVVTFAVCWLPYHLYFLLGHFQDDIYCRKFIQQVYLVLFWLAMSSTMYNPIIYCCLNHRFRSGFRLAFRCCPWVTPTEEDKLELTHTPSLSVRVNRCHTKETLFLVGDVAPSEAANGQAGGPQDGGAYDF
Source text: NK2 in vitro functional assay (Test E)
The ability of a Compound of the invention to antagonize the action of the agonist [β-ala^8] […] Am. J. Physiol. […] Left and right pulmonary arteries are excised from male New Zealand white rabbits. The pulmonary arteries are cut into ring segments and the intimal surface rubbed gently to remove the endothelium. Paired tissue segments of pulmonary artery are suspended between stainless steel stirrups for analyses of isometric tension development under standard conditions in physiological salt solution (PSS) containing indomethacin, (5 microM; to inhibit cyclooxygenase).
Initial tension placed on each tissue is 2 grams, which is maintained throughout the 45 minute equilibration period. Tissues are washed with PSS at 15 minute intervals. After the 45 minute equilibration period, 3×10^−2M KCl is applied for 60 minutes to test tissue viability. The tissues are then washed extensively for 30 minutes. The concentration of the Compound being tested is then added for 30 minutes before constructing a cumulative concentration-response curve with BANK. The curve is considered complete when each tissue fails to contract further for 2 consecutively increasing BANK concentrations. BaCl2 (3×10^−2M ) is then added to produce a maximum reference contraction.
Percent inhibition is determined when a tested Compound produces a statistically significant reduction in the magnitude of maximum contraction and is calculated as a percentage of the BaCl2 reference response. For antagonists behaving competitively, potencies are determined by calculating the negative log value of the apparent dissociation constant (pKB) for each concentration tested. Statistical significance is determined when the P value is <0.05 using the Student's t-test for paired comparisons.
as §1

T2 sequence (G1SEI7 1-407): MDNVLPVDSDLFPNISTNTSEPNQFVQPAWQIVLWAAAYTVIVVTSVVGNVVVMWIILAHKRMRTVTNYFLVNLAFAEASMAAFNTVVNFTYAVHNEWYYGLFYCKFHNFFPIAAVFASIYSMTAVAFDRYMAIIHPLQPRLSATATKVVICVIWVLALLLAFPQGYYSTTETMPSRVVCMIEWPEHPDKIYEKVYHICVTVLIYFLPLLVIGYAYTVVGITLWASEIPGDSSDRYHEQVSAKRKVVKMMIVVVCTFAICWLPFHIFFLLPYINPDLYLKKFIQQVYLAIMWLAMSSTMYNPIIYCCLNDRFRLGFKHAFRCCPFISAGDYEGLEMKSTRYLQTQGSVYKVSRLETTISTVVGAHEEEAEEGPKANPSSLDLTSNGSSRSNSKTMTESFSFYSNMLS
T1 sequence (P30547 whole entry): as the sequence (G1SEI7 1-407) above, with S176G, E186S, G329A, L342F, E368D, A369P, N376T, M395V, F399S counted along it

Structure (SMILES)	NK1 P/A ([1]; 2 hr)	Kd [2] [nM]	NK2 P/A ([3]; 2 hr)	Kd [4] [nM]	melting point	NK1 P/A ([1]; 1 hr)	NK2 P/A ([3]; 1 hr)
COc1ccc(C2CCN(CC[C@H](CN(C)C(=O)c3cc(C#N)cc4ccccc34)c3ccc(Cl)c(Cl)c3)CC2)c([S@+](C)[O-])c1.O=C(O)CC(O)(CC(=O)O)C(=O)O [Example 2, N-[(S)-2-(3,4-Dichlorophenyl)-4-[4-{4-methoxy-(S)-2-methylsulfinylphenyl}-1-piperidinyl]butyl]-N-methyl-3-cyano-1-naphthamide Citrate]	25.0 (2 hr)	7.94	83.0 (2 hr)	2			
CN(C[C@@H](CCN1CCC(c2ccccc2[S@+](C)[O-])CC1)c1ccc(Cl)c(Cl)c1)C(=O)c1cc(C#N)cc2ccccc12 [Example 1, N-[(S)-2-(3,4-Dichlorophenyl)-4-[4-[(S)-2-methylsulfinylphenyl]-1-piperidinyl]butyl]-N-methyl-3-cyano-1-naphthamide]	32.5 (2 hr)	1.02	21.4 (2 hr)	5.5			
CN(C[C@@H](CCN1CCC(c2ccc([S+](C)[O-])c(F)c2)CC1)c1ccc(Cl)c(Cl)c1)C(=O)c1cc(C#N)cc2ccccc12 (stereo partly drawn) (as salt: hydrochloride) [Example 60, N-[(S)-2-(3,4-Dichlorophenyl)-4-[4-[3-fluoro-4-methylsulfinylphenyl]-1-piperidinyl]butyl]-N-methyl-3-cyano-1-naphthamide]					175 to 180 °C		
CCN(C[C@@H](CCN1CCC(c2ccccc2[S@+](C)[O-])CC1)c1ccc(Cl)c(Cl)c1)C(=O)c1cc(C#N)cc2ccccc12 [Example 69, N-[(S)-2-(3,4-Dichlorophenyl)-4-[4-[(S)-2-methylsulfinylphenyl]-1-piperidinyl]butyl]-N-ethyl-3-cyano-1-naphthamide]					115 to 118 °C (dec.)		
CN(C[C@@H](CCN1CCC(N2CCCNC2=O)CC1)c1ccc(Cl)c(Cl)c1)C(=O)c1cc(C#N)cc2ccccc12 [Example 36, N-[(S)-2-(3,4-Dichlorophenyl)-4-[4-[tetrahydro-2-oxo-1(2H)-pyrimidinyl]-1-piperidinyl]-butyl]-N-methyl-3-cyano-1-naphthamide Citrate Hydrate (1:1:1.5)]		7.41		13.8		45.0 (1 hr)	20.6 (1 hr)

Source: patent US6365602B1, “N-substituted naphthalene carboxamides as neurokinin-receptor antagonists” (Astra Zeneca AB, priority 1998, dated 2002)
